The subject of data set [1] is SARS-CoV2. It is filed as cell-based. The conditions noted are these: for viral load: antioxidants NAC and SFN; for inhibition of SARS-CoV2 replication in HBECs (viral copy number): camostat basolateral.
The subject of the next data set is 16HBE cells. As to the kind of experiment: Cytotoxicity, CytoTox 96 LDH release assay. The conditions noted are these: for cytotoxicity (LDH release) at maximum concentration used in antiviral assays: 72 h, camostat 125 μM, HA 0.7%, BAPTA-AM 10 uM, allopurinol 400 μM, NAC 100 mM, SFN 10 μM, ivacaftor, PAAG at maximum; for toxicity values (percent of maximum toxicity): Allopurinol 400 uM, NAC 50 mM, SFN 5 uM, 72 hours.

Another data set has as its system cells. The following applies: due to the very low pH; cited from earlier work.
For data set [2], the system named is SARS-CoV2. As to the kind of experiment: Protection against SARS-CoV2 in Vero cells. The class given is cell-based.

“Also recorded” adds a separate entry of the source. Counter-ions that a name gives are not always drawn. Like-named read-outs stand apart in the source and are kept apart here.

As to `CC(C)(C)c1cc(C(C)(C)C)c(NC(=O)c2c[nH]c3ccccc3c2=O)cc1O` [Ivacaftor, ivacaftor], the “effect on SARS-CoV-2 replication” value in the data set with SARS-CoV2 [1] (ivacaftor basolateral, ≥10 μM, close to its maximum solubility) is on record as “moderate effect”. Also, the “cytotoxicity (LDH release) at maximum concentration used in antiviral assays” value (from here on “cytotoxicity (LDH release)”) with 16HBE cells is reported as “showed cytotoxicity”.
As to `CC(=O)N[C@@H](CS)C(=O)O` [NAC, N-Acetyl-L-cysteine], the viral load result with SARS-CoV2 [1] is on record as “reduction in the viral load”. In the data set on 16HBE cells, the “cytotoxicity (LDH release)” value is recorded as “neither allopurinol, NAC nor SFN showed cytotoxicity” and the “toxicity values (percent of maximum toxicity)” value was “negative values of toxicity”.
On to `C[S+]([O-])CCCCN=C=S` (stereo not shown) [SFN, sulforaphane], for which the viral load entry in the data set on SARS-CoV2 [1] is “reduction in the viral load”. Also, in the data set on 16HBE cells, the “cytotoxicity (LDH release)” value was “neither allopurinol, NAC nor SFN showed cytotoxicity” and the “toxicity values (percent of maximum toxicity)” value was “negative values of toxicity”.
Take `Oc1ncnc2[nH]ncc12` [allopurinol]: the “protection of HBECs from SARS-CoV2 infection (replication)” value in the data set on SARS-CoV2 [1] (allopurinol 400 uM, xanthine oxidase inhibition) is on record as “significantly protected; also recorded: significantly blocks SARS-CoV2 replication”. Also, in the data set on 16HBE cells, the “cytotoxicity (LDH release)” value is recorded as “neither allopurinol, NAC nor SFN showed cytotoxicity” and the “toxicity values (percent of maximum toxicity)” value is given as “negative values of toxicity”.
With `O=C1O[C@H]([C@@H](O)CO)C(O)=C1O` [ascorbic acid], in the data set on cells, the “cytotoxicity of component alone (without bicarbonate buffer)” value is “cytotoxic”.
For the compound `O=C([O-])O.[Na+]` [bicarbonate alone, sodium bicarbonate], the “antiviral activity of ARINA-1 components” value with SARS-CoV2 [1] is “did not show significant activity”.
Consider `CN(C)C(=O)COC(=O)Cc1ccc(OC(=O)c2ccc(NC(=N)N)cc2)cc1` [camostat mesylate], for which the “inhibition of SARS-CoV2 replication in HBECs (viral copy number)” value with SARS-CoV2 [1] (vs DMSO vehicle, 72 h) was “dose-dependent manner”; in the data set on SARS-CoV2 [1] (vs DMSO vehicle, 72 h, listed as Camostat), “significantly inhibited”. For the same compound, the “inhibition of SARS-CoV2 infection” value with SARS-CoV2 [1] (camostat mesylate basolateral, concentrations higher than 16.62 μM, vs DMSO vehicle, 72 h) is reported as around 100%. Further, the “protection against SARS-CoV2” value in the data set with SARS-CoV2 [2] is listed as “partially protective”. The “cytotoxicity (LDH release)” value in the data set with 16HBE cells was “not toxic”.
For the compound `N[C@@H](CCC(=O)N[C@@H](CS)C(=O)NCC(=O)O)C(=O)O` [glutathione], the “cytotoxicity of component alone (without bicarbonate buffer)” value in the data set with cells is recorded as “cytotoxic”.

The record behind these values is patent US20260256871A1, “COMPOSITIONS AND METHODS FOR TREATMENT OF SUBJECTS SUFFERING FROM A SARS-COV-2 INFECTION” (priority 2022, published 2026).
